Reference: patent US8207178B2 (priority 2007, dated 2012)
pEC50: −log10 of the molar value.

Legend:
[1] = test system: HIV-1 K103N-L100I mutant; test: microbe, parasite or virus in culture; format: cell-based, human immunodeficiency virus type 1 (HIV-1); conditions: Human immunodeficiency virus 1, HeLa, read-out: EC50 mutant K103N-L100I, mutant K103N-L100I
[2] = test system: wild type HIV-1; test: microbe, parasite or virus in culture; format: cell-based, human immunodeficiency virus type 1 (HIV-1); conditions: Human immunodeficiency virus 1, Hela-JC53

Row | Structure (SMILES) | pEC50 [1] | pEC50 [2]
1 | COc1cccc(-c2cc(C)c(Oc3nc(Nc4ccc(C#N)cc4)nc4ccn(C)c34)c(C)c2)c1C#N [Example 81, 4′-(2-(4-cyanophenylamino)-5-methyl-5H-pyrrolo[3,2-d]pyrimidin-4-yloxy)-3-methoxy-3′,5′-dimethylbiphenyl-2-carbonitrile] | < 8.00 | 8.00 to 9.00
2 | Cc1cc(-c2ccc(C(N)=O)cn2)cc(C)c1Oc1nc(Nc2ccc(C#N)cc2)nc2c1ncn2C [Example 124, 6-(4-(2-(4-cyanophenylamino)-9-methyl-9H-purin-6-yloxy)-3,5-dimethylphenyl)nicotinamide] | < 8.00 | 8.00 to 9.00
3 | COc1cncc(-c2cc(C)c(Oc3nc(Nc4ccc(C#N)cc4)nc4ccn(C)c34)c(C)c2)c1 [Example 87, 4-(4-(4-(5-methoxypyridin-3-yl)-2,6-dimethylphenoxy)-5-methyl-5H-pyrrolo[3,2-d]pyrimidin-2-ylamino) benzonitrile] | < 8.00 | 8.00 to 9.00
4 | Cc1cc(-c2ccc(C(=O)N3CCC(C(N)=O)C3)cn2)cc(C)c1Oc1nc(Nc2ccc(C#N)cc2)nc2[nH]cnc12 (stereo not shown) [Example 122, 1-(6-(4-(2-(4-cyanophenylamino)-9H-purin-6-yloxy)-3,5-dimethylphenyl)nicotinoyl)pyrrolidine-3-carboxamide] |  | < 8.00
5 | Cc1cc(-c2ccncc2)cc(C)c1Oc1nc(Nc2ccc(C#N)cc2)nc2c1cnn2C [Example 51, 4-(4-(2,6-Dimethyl-4-(pyridin-4-yl)phenoxy)-1-methyl-1H-pyrazolo[3,4-d]pyrimidin-6-ylamino) benzonitrile] | < 8.00 | 8.00 to 9.00
6 | COc1ccc(Cn2cnc3nc(Nc4ccc(C#N)cc4)nc(Oc4c(C)cc(-c5ccc(C(N)=O)cc5)cc4C)c32)cc1 [Example 49, 4′-(2-(4-Cyanophenylamino)-7-(4-methoxybenzyl)-7H-purin-6-yloxy)-3′,5′-dimethylbiphenyl-4-carboxamide] | < 8.00 | 8.00 to 9.00
7 | Cc1cc(-c2c(C)noc2C)cc(C)c1Oc1nc(Nc2ccc(C#N)cc2)nc2ccn(C)c12 [Example 35, 4-(4-(4-(3,5-Dimethylisoxazol-4-yl)-2,6-dimethylphenoxy)-5-methyl-5H-pyrrolo[3,2-d]pyrimidin-2-ylamino) benzonitrile] | 8.00 to 9.00 | 8.00 to 9.00
8 | Cc1cc(-c2ccc(C#N)cc2)cc(C)c1Oc1nc(Nc2ccc(C#N)cc2)nc2ccn(C)c12 [Example 44, 4′-(2-(4-Cyanophenylamino)-5-methyl-5H-pyrrolo[3,2-d]pyrimidin-4-yloxy)-3′,5′-dimethylbiphenyl-4-carbonitrile] | 8.00 to 9.00 | 8.00 to 9.00
9 | Cc1cc(-c2ccoc2)cc(C)c1Oc1nc(Nc2ccc(C#N)cc2)nc2ccn(C)c12 [Example 13, 4-(4-(4-(Furan-3-yl)-2,6-dimethylphenoxy)-5-methyl-5H-pyrrolo[3,2-d]pyrimidin-2-ylamino)benzonitrile] | < 8.00 | 8.00 to 9.00
10 | Cc1cc(-c2ccc(C(=O)N3CCC3)cn2)cc(C)c1Oc1nc(Nc2ccc(C#N)cc2)nc2[nH]cnc12 [Example 125, 4-(6-(4-(5-(azetidine-1-carbonyl)pyridin-2-yl)-2,6-dimethylphenoxy)-9H-purin-2-ylamino)benzonitrile] | 8.00 to 9.00 | 8.00 to 9.00
11 | Cc1cc(-c2cccc3cnccc23)cc(C)c1Oc1nc(Nc2ccc(C#N)cc2)nc2ccn(C)c12 [Example 39, 4-(4-(4-(Isoquinolin-5-yl)-2,6-dimethylphenoxy)-5-methyl-5H-pyrrolo[3,2-d]pyrimidin-2-ylamino) benzonitrile] | < 8.00 | < 8.00
12 | Cc1cc(-c2ccc3c(c2)OCCO3)cc(C)c1Oc1nc(Nc2ccc(C#N)cc2)nc2ccn(C)c12 [Example 68, 4-(4-(4-(2,3-dihydrobenzo [b][1,4]dioxin-6-yl)-2,6-dimethylbipheoxy)-5-methyl-5H-pyrrolo[3,2-d]pyrimidin-2-ylamino) benzonitrile] | < 8.00 | > 9.00
13 | Cc1cc(-c2ccc(S(N)(=O)=O)cc2)cc(C)c1Oc1nc(Nc2ccc(C#N)cc2)nc2c1ncn2C [Example 52, 4′-(2-(4-Cyanophenylamino)-9-methyl-9H-purin-6-yloxy)-3′,5′-dimethylbiphenyl-4-sulfonamide] | 8.00 to 9.00 | > 9.00
14 | Cc1cc(-c2ccc(N(C)C)cc2)cc(C)c1Oc1nc(Nc2ccc(C#N)cc2)nc2ccn(C)c12 [Example 22, 4-(4-(4′-(Dimethylamino)-3,5-dimethylphenyl-4-yloxy)-5-methyl-5H-pyrrolo[3,2-d]pyrimidin-2-ylamino)benzonitrile] | < 8.00 | 8.00 to 9.00
15 | Cc1cc(-c2ccc3c(c2)OCO3)cc(C)c1Oc1nc(Nc2ccc(C#N)cc2)nc2ccn(C)c12 [Example 69, 4-(4-(4-(benzo[d][1,3]dioxol-5-yl)-2,6-dimethylbiphenoxy)-5-methyl-5H-pyrrolo[3,2-d]pyrimidin-2-ylamino) benzonitrile] | < 8.00 | 8.00 to 9.00
16 | Cc1cc(-c2ccc(S(N)(=O)=O)cc2)cc(Cl)c1Oc1nc(Nc2ccc(C#N)cc2)nc2c1ncn2C [Example 113, 3′-chloro-4′-(2-(4-cyanophenylamino)-9-methyl-9H-purin-6-yloxy)-5′-methylbiphenyl-4-sulfonamide] | 8.00 to 9.00 | > 9.00

Row | Structure (SMILES) | pEC50 [1] | pEC50 [2]
17 | Cc1cc(-c2cccc3cccnc23)cc(C)c1Oc1nc(Nc2ccc(C#N)cc2)nc2ccn(C)c12 [Example 43, 4-(4-(2,6-Dimethyl-4-(quinolin-8-yl)phenoxy)-5-methyl-5H-pyrrolo[3,2-d]pyrimidin-2-ylamino) benzonitrile] | < 8.00 | 8.00 to 9.00
18 | COc1ccc(Cn2cnc3c(Oc4ccc(-c5ccncc5)cc4)nc(Nc4c(C)cc(C#N)cc4C)nc32)cc1 [Example 105, 4-(9-(4-Methoxybenzyl)-6-(4-(pyridin-4-yl)phenoxy)-9H-purin-2-ylamino)-3,5-dimethylbenzonitrile] | < 8.00 | < 8.00
19 | Cc1cc(-c2ccnnc2)cc(C)c1Oc1nc(Nc2ccc(C#N)cc2)nc2c1ncn2C [Example 59, 4-(6-(2,6-Dimethyl-4-(pyridazin-4-yl)phenoxy)-9-methyl-9H-purin-2-ylamino)benzonitrile] | < 8.00 | 8.00 to 9.00
20 | Cc1cc(-c2ccc(C(N)=O)cc2F)cc(C)c1Oc1nc(Nc2ccc(C#N)cc2)nc2ncn(C)c12 [Example 55, 4′-(2-(4-Cyanophenylamino)-7-methyl-7H-purin-6-yloxy)-2-fluoro-3′,5′-dimethylbiphenyl-4-carboxamide] | 8.00 to 9.00 | 8.00 to 9.00
21 | Cc1cc(-c2cc3ccccc3[nH]2)cc(C)c1Oc1nc(Nc2ccc(C#N)cc2)nc2ccn(C)c12 [Example 86, 4-(4-(4-(1H-indol-2-yl)-2,6-dimethylphenoxy)-5-methyl-5H-pyrrolo[3,2-d]pyrimidin-2-ylamino)benzonitrile] | < 8.00 | < 8.00
22 | N#Cc1ccc(Nc2nc(Oc3c(Cl)cc(-c4ccncc4)cc3Cl)c3[nH]cnc3n2)cc1 [Example 104, 4-(6-(2,6-Dichloro-4-(pyridin-4-yl)phenoxy)-7H-purin-2-ylamino)benzonitrile] | 8.00 to 9.00 | 8.00 to 9.00
23 | Cc1cc(-c2ccnc(N3CCOCC3)c2Cl)cc(C)c1Oc1nc(Nc2ccc(C#N)cc2)nc2ccn(C)c12 [Example 79, 4-(4-(4-(3-chloro-2-morpholinopyridin-4-yl)-2,6-dimethylphenoxy)-5-methyl-5H-pyrrolo[3,2-d]pyrimidin-2-ylamino)benzonitrile] | 8.00 to 9.00 | 8.00 to 9.00
24 | Cc1cc(-c2ccnn2C)cc(C)c1Oc1nc(Nc2ccc(C#N)cc2)nc2ccn(C)c12 [Example 25, 4-(4-(2,6-Dimethyl-4-(1-methyl-1H-pyrazol-5-yl)phenoxy)-5-methyl-5H-pyrrolo[3,2-d]pyrimidin-2-ylamino)benzonitrile] | > 9.00 | > 9.00
25 | COc1cccc(C#N)c1-c1cc(C)c(Oc2nc(Nc3ccc(C#N)cc3)nc3ccn(C)c23)c(C)c1 [Example 83, 4′-(2-(4-cyanophenylamino)-5-methyl-5H-pyrrolo[3,2-d]pyrimidin-4-yloxy)-6-methoxy-3′,5′-dimethylbiphenyl-2-carbonitrile] |  | < 8.00
26 | Cc1cc(-c2ccc(C(=O)O)cn2)cc(C)c1Oc1nc(Nc2ccc(C#N)cc2)nc2[nH]cnc12 [Example 121, 6-(4-(2-(4-cyanophenylamino)-9H-purin-6-yloxy)-3,5-dimethylphenyl)nicotinic acid] |  | < 8.00
27 | Cc1cc(-c2ccc(C(N)=O)cn2)cc(C)c1Oc1nc(Nc2ccc(C#N)cc2)nc2[nH]cnc12 [Example 126, 6-(4-(2-(4-cyanophenylamino)-9H-purin-6-yloxy)-3,5-dimethylphenyl)nicotinamide] |  | 8.00 to 9.00
28 | COc1ccc(-c2cc(C)c(Oc3nc(Nc4ccc(C#N)cc4)nc4ccn(C)c34)c(C)c2)cn1 [Example 82, 4-(4-(4-(6-methoxypyridin-3-yl)-2,6-dimethylphenoxy)-5-methyl-5H-pyrrolo[3,2-d]pyrimidin-2-ylamino) benzonitrile] |  | < 8.00
29 | Cc1cc(-c2cnc(N)nc2)cc(C)c1Oc1nc(Nc2ccc(C#N)cc2)nc2ccn(C)c12 [Example 70, 4-(4-(4-(2-aminopyrimidin-5-yl)-2,6-dimethylbiphenoxy)-5-methyl-5H-pyrrolo[3,2-d]pyrimidin-2-ylamino) benzonitrile] | 8.00 to 9.00 | 
30 | Cc1cc(-c2ccc(C(=O)N3CCCC3)cc2)cc(C)c1Oc1nc(Nc2ccc(C#N)cc2)nc2ccn(C)c12 [Example 93, 4-(4-(3,5-dimethyl-4′-(pyrrolidine-1-carbonyl)biphenyl-4-yloxy)-5-methyl-5H-pyrrolo[3,2-d]pyrimidin-2-ylamino) benzonitrile] |  | < 8.00
31 | Cc1cc(-c2cccc(S(N)(=O)=O)c2)cc(C)c1Oc1nc(Nc2ccc(C#N)cc2)nc2ccn(C)c12 [Example 71, 4′-(2-(4-cyanophenylamino)-5-methyl-5H-pyrrolo[3,2-d]pyrimidin-4-yloxy)-3′,5′-dimethylbiphenyl-3-sulfonamide] | < 8.00 | 
32 | Cc1cc(-c2cnc(N(C)C)nc2)cc(C)c1Oc1nc(Nc2ccc(C#N)cc2)nc2ccn(C)c12 [Example 28] | < 8.00 | 
